Results reported in patent EP1290011B1 (Oncopeptides AB, priority 2000, dated 2001).

What was measured:
[1] = system: U-937; assay: FMCA comparing J1 and AcJ1; format: cell-based; conditions: U-937 cell line
Protocol: (§1) The fluorometric microculture cytotoxicity assay (FMCA) (Larsson, R., et al- 1992: Int J Cancer, 50, 177-185) was used to evaluate the compounds. Briefly, 96-well microtiter plates (NUNC, Roskilde, Denmark) are prepared with 20 µl drug solution at ten times the desired concentration and stored for up to two months at -70°C. In general the substances are first dissolved in absolute or acidic ethanol to concentrations of 4.0 to 8.2 mM and further diluted with sterile water or sterile phosphate buffered saline (PBS, Sigma chemicals). All dilutions with water are made directly before the experiments to minimise the influence of mustard hydrolysis. […] At day zero of the experiment 180 µl of cell suspension of adequate concentration is added to the wells of the thawed plate, six wells serve as controls (cell suspension only) and six wells as blanks (cell medium only). After 72 hours incubation the cells are washed once with PBS, and 100 µl of fluorescein diacetate (10 µg/ml) in a physiological buffer is added. After another 45 min the generated fluorescence (ex 485 nm; em 528 nm) is measured in a 96-well scanning fluorometer (Fluoroscan II, Labsystems Oy, Helsinki, Finland). […]

[2] = system: RPMI 8226S; assay: FMCA comparing J1 and AcJ1; format: cell-based; conditions: RPMI 8226S cell line
Protocol: as §1

[3] = system: Prostate cancer; assay: Cytotoxic activity in different tumour models; format: cell-based, human; conditions: Number 1
[4] = system: Solid tumours (PHTC); assay: FMCA in PHTC cultures, Table 4, solid; conditions: 4 µM; n=12-20; 4320 min
[5] = system: PHTC samples from 9 patients with hematological and 18 patients with solid tumours; assay: Circumvention of melphalan resistance: FMCA classification of PHTC samples as LDR, IDR, EDR; format: cell-based, human; conditions: tested at 4 µM; for Number of samples EDR / Number of samples (%) EDR: Extreme drug resistance; for Number of samples (%) EDR / Number of samples (%) IDR / Number of samples (%) LDR: percent of samples; for Number of samples IDR / Number of samples (%) IDR: Intermediate drug resistance; for Number of samples LDR / Number of samples (%) LDR: Low drug resistance
[6] = system: Adeno-carcinoma; assay: Cytotoxic activity in different tumour models; format: cell-based, human; conditions: Number 5
[7] = system: 8226Dox40; assay: cells; format: cell-based, human; conditions: 8226Dox40, doxorubicin resistance; 72 hours incubation; read-out: IC50
[8] = system: NSC Lung cancer; assay: Cytotoxic activity in different tumour models; format: cell-based, human; conditions: Number 8
[9] = system: CEM/R; assay: cells; format: cell-based, human; conditions: CEM/R; 72 hours incubation; read-out: IC50
[10] = system: Breast cancer; assay: Cytotoxic activity in different tumour models; format: cell-based, human; conditions: Number 4
[11] = system: panel of ten human tumour cell lines; assay: cells; format: cell-based; conditions: mean over the ten cell lines; read-out: MEAN IC50
[12] = system: Hematological tumours (PHTC); assay: FMCA in PHTC cultures, Table 4, hematological; conditions: 4 µM; n=7-11; 4320 min
[13] = system: 8226S; assay: cells; format: cell-based, human; conditions: 8226S, myeloma; 72 hours incubation; read-out: IC50
[14] = system: 8226LR5; assay: cells; format: cell-based, human; conditions: 8226LR5, melphalan resistance; 72 hours incubation; read-out: IC50
[15] = system: CEM/S; assay: cells; format: cell-based, human; conditions: CEM/S; 72 hours incubation; read-out: IC50
[16] = system: Ovarian carcinoma; assay: Cytotoxic activity in different tumour models; format: cell-based, human; conditions: Number 8
[17] = system: U937gtb; assay: cells; format: cell-based, human; conditions: U937gtb, lymphoma; 72 hours incubation; read-out: IC50
[18] = system: H69; assay: cells; format: cell-based, human; conditions: H69, small cell lung cancer; 72 hours incubation; read-out: IC50
[19] = system: Corpus cancer; assay: Cytotoxic activity in different tumour models; format: cell-based, human; conditions: Number 4
[20] = system: U937vcr; assay: cells; format: cell-based, human; conditions: U937vcr, vincristine resistance; 72 hours incubation; read-out: IC50
[21] = system: primary cultures of human tumor cells from patients (PHTC), Total; assay: FMCA in PHTC cultures, Table 4, total; conditions: 4 µM; n=19-31; 4320 min
[22] = system: ACHN; assay: cells; format: cell-based, human; conditions: ACHN, primary resistant renal carcinoma; 72 hours incubation; read-out: IC50
[23] = system: H69AR; assay: cells; format: cell-based, human; conditions: H69AR, doxorubicin resistance; 72 hours incubation; read-out: IC50
[24] = system: hematological fresh human tumour specimens (PHTC); conditions: 0.66 µM; n=42; 4320 min
[25] = system: NCI-H125; assay: cells; format: cell-based; conditions: NCI-H125, non-small cell lung cancer; read-out: IC50
[26] = system: U-1810; assay: cells; format: cell-based; conditions: U-1810, non-small cell lung cancer; read-out: IC50
[27] = system: U-1906E; assay: cells; format: cell-based; conditions: U-1906E, small cell lung cancer; read-out: IC50
[28] = system: U-1568; assay: cells; format: cell-based; conditions: U-1568, non-small cell lung cancer; read-out: IC50
[29] = system: U-1752; assay: cells; format: cell-based; conditions: U-1752, non-small cell lung cancer; read-out: IC50
[30] = system: NCI-H611; assay: cells; format: cell-based; conditions: NCI-H611, non-small cell lung cancer; read-out: IC50
[31] = system: U1906L; assay: cells; format: cell-based; conditions: U1906L, small cell lung cancer; read-out: IC50
[32] = system: U1690; assay: cells; format: cell-based; conditions: U1690, small cell lung cancer; read-out: IC50
[33] = system: fresh human tumour specimens; assay: FMCA cytotoxic activity in 27 fresh human tumour specimens (Figure 2); format: cell-based; conditions: 27 human tumour samples, 14 hematological and 13 solid, comparative statement
[34] = system: solid tumour fresh human tumour specimens (PHTC); conditions: 0.66 µM; n=22; 4320 min
[35] = system: U1285; assay: cells; format: cell-based; conditions: U1285, small cell lung cancer; read-out: IC50
[36] = system: NCI-H23; assay: cells; format: cell-based; conditions: NCI-H23, non-small cell lung cancer; read-out: IC50
[37] = system: NCI-H157; assay: cells; format: cell-based; conditions: NCI-H157, non-small cell lung cancer; read-out: IC50

SMILES | Tumour cell survival index (%) Solid tumours [4] | Number of samples EDR [5] | Number of samples (%) EDR [5] | Number of samples IDR [5] | Number of samples (%) IDR [5] | Number of samples LDR [5] | Number of samples (%) LDR [5] | Median response at 4.0 µM >50% reduction in tumour cell survival [6] | IC50 [7] | Median response at 4.0 µM >50% reduction in tumour cell survival [8] | IC50 [9] | Median response at 4.0 µM >50% reduction in tumour cell survival [10] | IC50 [11] | Tumour cell survival index (%) Hematological tumours [12] | IC50 [13] | IC50 [14] | IC50 [15] | Median response at 4.0 µM >50% reduction in tumour cell survival [16] | IC50 [17] | IC50 [18] | also measured
CCOC(=O)[C@H](Cc1ccc(F)cc1)NC(=O)[C@H](Cc1ccc(N(CCCl)CCCl)cc1)NC(C)=O [AcJ1, N-Acetyl-L-melphalanyl-L-p-fluorophenylalanine ethyl ester] | – | – | – | – | – | – | – | – | – | – | – | – | – | – | – | – | – | – | – | – | IC50 [1]: 610 nM; IC50 [2]: 2900 nM
CCOC(=O)[C@H](Cc1ccc(F)cc1)NC(=O)[C@H](Cc1ccc(N(CCCl)CCCl)cc1)NC(=O)[C@@H]1CCCN1.Cl [Example J3, L-Prolinyl-L-melphalanyl-L-p-fluorophenylalanine ethyl ester hydrochloride] | 36.3% | 0 (0%) | 0 (0%) | 4 | 15% | 23 | 85% | Yes | 5660 nM | Yes | 20 nM | Yes | 1470 nM | 7% | 1510 nM | 3520 nM | 60 nM | Yes | 230 nM | 200 nM | Median response at 4.0 µM >50% reduction in tumour cell survival [3]: Yes; Median response at 4.0 µM >50% reduction in tumour cell survival [19]: Yes; IC50 [20]: 420 nM; Tumour cell survival index (%) Total [21]: 25.9%; IC50 [22]: 1720 nM; IC50 [23]: 1360 nM
CCOC(=O)[C@H](Cc1ccc(F)cc1)NC(=O)[C@@H](N)Cc1ccc(N(CCCl)CCCl)cc1.Cl [Example J1, L-Melphalanyl-L-p-fluorophenylalanine ethyl ester hydrochloride] | 56.5% | 1 | 6% | 3 | 18% | 13 | 76% | Yes | 1760 nM | Yes | 10 nM | Yes | 660 nM | 6.6% | 810 nM | 2470 nM | 30 nM | Yes | 70 nM | 40 nM | Tumour cell survival index % Hematological [24]: 13.7%; IC50 [25]: 9730 nM; IC50 [26]: 10 nM; IC50 [27]: 1170 nM; IC50 [28]: 1640 nM; IC50 [29]: 1300 nM; IC50 [30]: 3170 nM; IC50 [31]: 220 nM; Median response at 4.0 µM >50% reduction in tumour cell survival [19]: No; IC50 [32]: 1390 nM; IC50s (comparison) [33]: in all cases was more active than P2; Tumour cell survival index % Solid [34]: 46.9%; IC50 [35]: 40 nM; IC50 [20]: 110 nM; Tumour cell survival index (%) Total [21]: 40.9%; IC50 [36]: 7600 nM; IC50 [22]: 400 nM; IC50 [23]: < 9000 nM; IC50 [37]: 3900 nM
CC(C)OC(=O)[C@H](Cc1ccc(F)cc1)NC(=O)[C@@H](N)Cc1ccc(N(CCCl)CCCl)cc1.Cl [JV28, L-Melphalanyl-L-p-fluorophenylalanine isopropyl ester hydrochloride] | 44.2% | 1 | 6% | 2 | 12% | 14 | 82% | Yes | 890 nM | Yes | 40 nM | Yes | 410 nM | 6.7% | 510 nM | 1880 nM | 60 nM | Yes | 100 nM | 50 nM | Median response at 4.0 µM >50% reduction in tumour cell survival [3]: Yes; IC50 [20]: 150 nM; Tumour cell survival index (%) Total [21]: 30.4%; IC50 [22]: 50 nM; IC50 [23]: 370 nM
